What follows are compounds tested on 843126-344-R-J1-PDC complex spheroid viability (assay: Anticancer human tumor 843126-344-R-J1-PDC patient-derived melanoma cell line growth inhibition [POLQ]). Settings: curve of first compound; second compound 10 µM.
In short: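 Growth inhibition in 3D: complex spheroids (tumor PDC, HUVEC, MSC) treated with POLQ inhibitor combinations; where Cmax unknown, highest tested concentration 10 microM, except SN-38 at 1 microM.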
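Wherever viability, T/C is given: spheroids exposed to drugs for seven days before readout.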

Compound	IC50 [nM]
COc1cccc(OCCCN)c1-c1cc(Nc2cnc(C#N)cn2)n[nH]1 + Nc1ccc(C#CCN(C(=O)Cc2ncc(C(F)(F)F)cc2C(F)(F)F)c2ccc(F)cc2)nn1	54.2
O=c1[nH]cc(F)c(=O)[nH]1 + Cc1cccc(N(C)C(=O)C2C(O)CCN2c2nc(C)cc(C(F)(F)F)c2C#N)c1	> 10000
C=CCn1c(=O)c2cnc(Nc3ccc(N4CCN(C)CC4)cc3)nc2n1-c1cccc(C(C)(C)O)n1 + COC1C(OC(N)=O)C(O)C(Oc2ccc3c(O)c(NC(=O)c4ccc(O)c(CC=C(C)C)c4)c(=O)oc3c2C)OC1(C)C	> 1000
CCc1c2c(nc3ccc(O)cc13)-c1cc3c(c(=O)n1C2)COC(=O)[C@]3(O)CC + COC1C(OC(N)=O)C(O)C(Oc2ccc3c(O)c(NC(=O)c4ccc(O)c(CC=C(C)C)c4)c(=O)oc3c2C)OC1(C)C	485
O=c1[nH]cc(F)c(=O)[nH]1 + Nc1ccc(C#CCN(C(=O)Cc2ncc(C(F)(F)F)cc2C(F)(F)F)c2ccc(F)cc2)nn1	> 10000
COc1cc2cc(C(=O)CCC(=O)O)sc2cc1OC + COC1C(OC(N)=O)C(O)C(Oc2ccc3c(O)c(NC(=O)c4ccc(O)c(CC=C(C)C)c4)c(=O)oc3c2C)OC1(C)C	> 10000

Same assay, conditions: second compound 0.0316 µM; first compound 0.00316 µM; stronger effect = lower value

Compound	viability, T/C [%]
COc1cccc(OCCCN)c1-c1cc(Nc2cnc(C#N)cn2)n[nH]1 + Nc1ccc(C#CCN(C(=O)Cc2ncc(C(F)(F)F)cc2C(F)(F)F)c2ccc(F)cc2)nn1	92
C=CCn1c(=O)c2cnc(Nc3ccc(N4CCN(C)CC4)cc3)nc2n1-c1cccc(C(C)(C)O)n1 + COC1C(OC(N)=O)C(O)C(Oc2ccc3c(O)c(NC(=O)c4ccc(O)c(CC=C(C)C)c4)c(=O)oc3c2C)OC1(C)C	114
CCc1c2c(nc3ccc(O)cc13)-c1cc3c(c(=O)n1C2)COC(=O)[C@]3(O)CC + COC1C(OC(N)=O)C(O)C(Oc2ccc3c(O)c(NC(=O)c4ccc(O)c(CC=C(C)C)c4)c(=O)oc3c2C)OC1(C)C	63.2

Same assay, conditions: second compound 0.0316 µM; first compound 0.01 µM; stronger effect = lower value

Compound	viability, T/C [%]
COc1cccc(OCCCN)c1-c1cc(Nc2cnc(C#N)cn2)n[nH]1 + Nc1ccc(C#CCN(C(=O)Cc2ncc(C(F)(F)F)cc2C(F)(F)F)c2ccc(F)cc2)nn1	78.5
C=CCn1c(=O)c2cnc(Nc3ccc(N4CCN(C)CC4)cc3)nc2n1-c1cccc(C(C)(C)O)n1 + COC1C(OC(N)=O)C(O)C(Oc2ccc3c(O)c(NC(=O)c4ccc(O)c(CC=C(C)C)c4)c(=O)oc3c2C)OC1(C)C	84
CCc1c2c(nc3ccc(O)cc13)-c1cc3c(c(=O)n1C2)COC(=O)[C@]3(O)CC + COC1C(OC(N)=O)C(O)C(Oc2ccc3c(O)c(NC(=O)c4ccc(O)c(CC=C(C)C)c4)c(=O)oc3c2C)OC1(C)C	59.4

Same assay, conditions: second compound 0.0316 µM; first compound 0.0316 µM; stronger effect = lower value

Compound	viability, T/C [%]
COc1cc(C2c3cc4c(cc3C(OC3OC5COC(C)OC5C(O)C3O)C3COC(=O)C23)OCO4)cc(OC)c1O (configuration not stated) + Nc1ccc(C#CCN(C(=O)Cc2ncc(C(F)(F)F)cc2C(F)(F)F)c2ccc(F)cc2)nn1	82.4
COc1cccc(OCCCN)c1-c1cc(Nc2cnc(C#N)cn2)n[nH]1 + Nc1ccc(C#CCN(C(=O)Cc2ncc(C(F)(F)F)cc2C(F)(F)F)c2ccc(F)cc2)nn1	53.1
O=c1[nH]cc(F)c(=O)[nH]1 + Cc1cccc(N(C)C(=O)C2C(O)CCN2c2nc(C)cc(C(F)(F)F)c2C#N)c1	101
C=CCn1c(=O)c2cnc(Nc3ccc(N4CCN(C)CC4)cc3)nc2n1-c1cccc(C(C)(C)O)n1 + COC1C(OC(N)=O)C(O)C(Oc2ccc3c(O)c(NC(=O)c4ccc(O)c(CC=C(C)C)c4)c(=O)oc3c2C)OC1(C)C	86.6
CCc1c2c(nc3ccc(O)cc13)-c1cc3c(c(=O)n1C2)COC(=O)[C@]3(O)CC + COC1C(OC(N)=O)C(O)C(Oc2ccc3c(O)c(NC(=O)c4ccc(O)c(CC=C(C)C)c4)c(=O)oc3c2C)OC1(C)C	65.9
O=c1[nH]cc(F)c(=O)[nH]1 + Nc1ccc(C#CCN(C(=O)Cc2ncc(C(F)(F)F)cc2C(F)(F)F)c2ccc(F)cc2)nn1	101
COc1cc2cc(C(=O)CCC(=O)O)sc2cc1OC + COC1C(OC(N)=O)C(O)C(Oc2ccc3c(O)c(NC(=O)c4ccc(O)c(CC=C(C)C)c4)c(=O)oc3c2C)OC1(C)C	93.2

Same assay, conditions: second compound 0.0316 µM; first compound 0.1 µM; stronger effect = lower value

Compound	viability, T/C [%]
COc1cc(C2c3cc4c(cc3C(OC3OC5COC(C)OC5C(O)C3O)C3COC(=O)C23)OCO4)cc(OC)c1O (configuration not stated) + Nc1ccc(C#CCN(C(=O)Cc2ncc(C(F)(F)F)cc2C(F)(F)F)c2ccc(F)cc2)nn1	78.3
COc1cccc(OCCCN)c1-c1cc(Nc2cnc(C#N)cn2)n[nH]1 + Nc1ccc(C#CCN(C(=O)Cc2ncc(C(F)(F)F)cc2C(F)(F)F)c2ccc(F)cc2)nn1	47.3
O=c1[nH]cc(F)c(=O)[nH]1 + Cc1cccc(N(C)C(=O)C2C(O)CCN2c2nc(C)cc(C(F)(F)F)c2C#N)c1	112
C=CCn1c(=O)c2cnc(Nc3ccc(N4CCN(C)CC4)cc3)nc2n1-c1cccc(C(C)(C)O)n1 + COC1C(OC(N)=O)C(O)C(Oc2ccc3c(O)c(NC(=O)c4ccc(O)c(CC=C(C)C)c4)c(=O)oc3c2C)OC1(C)C	81.5
CCc1c2c(nc3ccc(O)cc13)-c1cc3c(c(=O)n1C2)COC(=O)[C@]3(O)CC + COC1C(OC(N)=O)C(O)C(Oc2ccc3c(O)c(NC(=O)c4ccc(O)c(CC=C(C)C)c4)c(=O)oc3c2C)OC1(C)C	64.5
O=c1[nH]cc(F)c(=O)[nH]1 + Nc1ccc(C#CCN(C(=O)Cc2ncc(C(F)(F)F)cc2C(F)(F)F)c2ccc(F)cc2)nn1	94.7
COc1cc2cc(C(=O)CCC(=O)O)sc2cc1OC + COC1C(OC(N)=O)C(O)C(Oc2ccc3c(O)c(NC(=O)c4ccc(O)c(CC=C(C)C)c4)c(=O)oc3c2C)OC1(C)C	82.8

Same assay, conditions: second compound 0.0316 µM; first compound 0.316 µM; stronger effect = lower value

Compound	viability, T/C [%]
COc1cc(C2c3cc4c(cc3C(OC3OC5COC(C)OC5C(O)C3O)C3COC(=O)C23)OCO4)cc(OC)c1O (configuration not stated) + Nc1ccc(C#CCN(C(=O)Cc2ncc(C(F)(F)F)cc2C(F)(F)F)c2ccc(F)cc2)nn1	94
COc1cccc(OCCCN)c1-c1cc(Nc2cnc(C#N)cn2)n[nH]1 + Nc1ccc(C#CCN(C(=O)Cc2ncc(C(F)(F)F)cc2C(F)(F)F)c2ccc(F)cc2)nn1	40
O=c1[nH]cc(F)c(=O)[nH]1 + Cc1cccc(N(C)C(=O)C2C(O)CCN2c2nc(C)cc(C(F)(F)F)c2C#N)c1	104
C=CCn1c(=O)c2cnc(Nc3ccc(N4CCN(C)CC4)cc3)nc2n1-c1cccc(C(C)(C)O)n1 + COC1C(OC(N)=O)C(O)C(Oc2ccc3c(O)c(NC(=O)c4ccc(O)c(CC=C(C)C)c4)c(=O)oc3c2C)OC1(C)C	89.4
CCc1c2c(nc3ccc(O)cc13)-c1cc3c(c(=O)n1C2)COC(=O)[C@]3(O)CC + COC1C(OC(N)=O)C(O)C(Oc2ccc3c(O)c(NC(=O)c4ccc(O)c(CC=C(C)C)c4)c(=O)oc3c2C)OC1(C)C	63.1
O=c1[nH]cc(F)c(=O)[nH]1 + Nc1ccc(C#CCN(C(=O)Cc2ncc(C(F)(F)F)cc2C(F)(F)F)c2ccc(F)cc2)nn1	92.9
COc1cc2cc(C(=O)CCC(=O)O)sc2cc1OC + COC1C(OC(N)=O)C(O)C(Oc2ccc3c(O)c(NC(=O)c4ccc(O)c(CC=C(C)C)c4)c(=O)oc3c2C)OC1(C)C	99.1

Same assay, conditions: second compound 0.0316 µM; first compound 1 µM; stronger effect = lower value

Compound	viability, T/C [%]
COc1cc(C2c3cc4c(cc3C(OC3OC5COC(C)OC5C(O)C3O)C3COC(=O)C23)OCO4)cc(OC)c1O (configuration not stated) + Nc1ccc(C#CCN(C(=O)Cc2ncc(C(F)(F)F)cc2C(F)(F)F)c2ccc(F)cc2)nn1	89.7
COc1cccc(OCCCN)c1-c1cc(Nc2cnc(C#N)cn2)n[nH]1 + Nc1ccc(C#CCN(C(=O)Cc2ncc(C(F)(F)F)cc2C(F)(F)F)c2ccc(F)cc2)nn1	35.5
O=c1[nH]cc(F)c(=O)[nH]1 + Cc1cccc(N(C)C(=O)C2C(O)CCN2c2nc(C)cc(C(F)(F)F)c2C#N)c1	101
C=CCn1c(=O)c2cnc(Nc3ccc(N4CCN(C)CC4)cc3)nc2n1-c1cccc(C(C)(C)O)n1 + COC1C(OC(N)=O)C(O)C(Oc2ccc3c(O)c(NC(=O)c4ccc(O)c(CC=C(C)C)c4)c(=O)oc3c2C)OC1(C)C	80

— PubChem BioAssay AID1963837 (Molecular Pharmacology Branch, DTP, NCI, 2024)
